# Experimental data from PMC4503722, “Novel Phenotypic Outcomes Identified for a Public Collection of Approved Drugs from a Publicly Accessible Panel of Assays” (PLoS ONE, 2015).
# Where two headings read alike, the source gives them in different places.
# How the values were obtained:
# Assay in all cases: cells
# DLD-1 = type: cell-based
# INS-1E cells = type: cell-based, rat; conditions: read-out: Insulin Secretion
# HT-29 = type: cell-based
# RKO = type: cell-based
# HCT116 = type: cell-based
# Colo320 = type: cell-based
# SNU-C1 = type: cell-based
# HeLa cells = type: cell-based; conditions: read-out: CellCycle G2/M
# [1] = system: endothelial tube formation in co-cultures of ECFCs and ADSCs treated with VEGF; type: cell-based, human; conditions: read-out: Anti-Angiogenesis
# NCI-H716 cells = type: cell-based, Human
# [2] = system: nuclear β-catenin in C2C12 cells; type: cell-based
# [3] = system: HCT116 cells treated with a GSK3β inhibitor; type: cell-based
# SW480 = type: cell-based
# [4] = basal, DLD-1, read-out: Basal_Viability ATP DLD-1
# [5] = S2 Table, module primary assay, 20 / 20.1 codes per legend
# [6] = basal; HT-29; read-out: Basal_Viability ATP HT-29
# [7] = basal; RKO; read-out: Basal_Viability ATP RKO
# [8] = basal, HCT116, read-out: Basal_Viability ATP HCT116
# [9] = basal; Colo 320; read-out: Basal_Viability ATP Colo 320
# [10] = basal, SNU-C1, read-out: Basal_Viability ATP SNU-C1
# [11] = S2 Table, module primary assay, 20 / 20.1 codes per legend, read-out: Wnt Pathway
# [12] = HCT116 pretreated with GSK3b inhibitor, read-out: GSK3b inh pretreated_Viability ATP HCT116
# [13] = basal, SW480, read-out: Basal_Viability ATP SW480
# [14] = read-out: Basal_Viability ATP DLD-1
# [15] = read-out: Basal_Viability ATP HT-29
# [16] = read-out: Basal_Viability ATP RKO
# [17] = read-out: Basal_Viability ATP HCT116
# [18] = read-out: Basal_Viability ATP Colo 320
# [19] = read-out: Basal_Viability ATP SNU-C1
# [20] = read-out: GSK3b inh pretreated_Viability ATP HCT116
# [21] = read-out: Basal_Viability ATP SW480
Compound,IC50 (DLD-1; [4]),EC50 (INS-1E cells; [5]),IC50 (HT-29; [6]),IC50 (RKO; [7]),IC50 (HCT116; [8]),IC50 (Colo320; [9]),IC50 (SNU-C1; [10]),"EC50 [2, 11]","IC50 [3, 12]",IC50 (SW480; [13]),IC50 (DLD-1; [14]),EC50 (INS-1E cells),IC50 (HT-29; [15]),IC50 (RKO; [16]),IC50 (HCT116; [17]),IC50 (Colo320; [18]),IC50 (SNU-C1; [19]),EC50 (HeLa cells),IC50 [1],EC50 (NCI-H716 cells; read-out: GLP 1 Secretion),other results
Fc1ccc(C(OCCN2CCN(CCCc3ccccc3)CC2)c2ccc(F)cc2)cc1,903 nM,> 10000 nM,1490 nM,113 nM,4870 nM,> 20000 nM,1820 nM,> 10000 nM,2850 nM,2070 nM,–,–,–,–,–,–,–,–,–,–,"EC50 (HeLa cells; S2 Table, HeLa, 20 = no response at highest concentration): > 10000 nM; IC50 ([1]; S2 Table, module primary assay, 20 = no response at highest concentration, 20.1 = inactive in single concentration testing): > 10000 nM; EC50 (NCI-H716 cells; S2 Table, module primary assay, 20 / 20.1 codes per legend, read-out: GLP 1 Secretion): > 10000 nM"
CCC(COC(=O)c1cc(OC)c(OC)c(OC)c1)(c1ccccc1)N(C)C (stereo not shown),–,–,–,–,–,–,–,–,–,–,> 20000 nM,> 10000 nM,> 20000 nM,142 nM,> 20000 nM,> 20000 nM,2450 nM,> 10000 nM,> 10000 nM,> 10000 nM,"EC50 ([2]; read-out: Wnt Pathway): > 10000 nM; IC50 [3, 20]: 1620 nM; IC50 (SW480; [21]): > 20000 nM"
"O=Cc1ccc(O)c(O)c1O [2,3,4-Trihydroxybenzaldehyde]",–,–,–,–,–,–,–,–,–,–,–,–,–,–,–,–,–,–,–,–,"IC50 (DLD-1; Homo sapiens, DLD-1, read-out: Basal_Viability ATP DLD-1): > 20000 nM; EC50 (INS-1E cells; Rattus norvegicus, INS-1E): > 10000 nM; IC50 (HT-29; Homo sapiens, HT-29, read-out: Basal_Viability ATP HT-29): > 20000 nM; IC50 (RKO; Homo sapiens, RKO, read-out: Basal_Viability ATP RKO): 6230 nM; IC50 (HCT116; Homo sapiens, HCT-116, read-out: Basal_Viability ATP HCT116): > 20000 nM; IC50 (Colo320; Homo sapiens, COLO 320, read-out: Basal_Viability ATP Colo 320): 9080 nM; IC50 (SNU-C1; Homo sapiens, SNU-C1, read-out: Basal_Viability ATP SNU-C1): > 20000 nM; EC50 (HeLa cells; Homo sapiens, HeLa): > 10000 nM; IC50 ([1]; Homo sapiens): > 10000 nM; EC50 (NCI-H716 cells; Homo sapiens, NCI-H716, read-out: GLP 1 Secretion): > 10000 nM; EC50 ([2]; Mus musculus, C2C12, read-out: Wnt Pathway): > 10000 nM; IC50 ([3]; Homo sapiens, HCT-116, read-out: GSK3b inh pretreated_Viability ATP HCT116): 141 nM; IC50 (SW480; Homo sapiens, SW480, read-out: Basal_Viability ATP SW480): 11300 nM"
"CCN1C(=CC=Cc2sc3ccccc3[n+]2CC)Sc2ccccc21 [3,3'-diethylthiacarbocyanine iodide]",–,–,–,–,–,–,–,–,–,–,14.8 nM,> 10000 nM,8.38 nM,8.98 nM,9.57 nM,562 nM,17.2 nM,> 10000 nM,> 10000 nM,> 10000 nM,"EC50 ([2]; read-out: Wnt Pathway): > 10000 nM; IC50 [3, 20]: 8.75 nM; IC50 (SW480; [21]): 172 nM"
"CC(=O)[O][Hg][c]1ccccc1 [Mercury, (acetato-o)phenyl-]",736 nM,> 10000 nM,799 nM,1200 nM,2800 nM,1300 nM,192 nM,> 10000 nM,360 nM,543 nM,–,–,–,–,–,–,–,–,530 nM,713 nM,–
O=C(Nc1ccc(Oc2ccc(Cl)cc2)c(Cl)c1)c1cc(I)cc(I)c1O [Rafoxanide],–,–,–,–,–,–,–,–,–,–,–,–,–,–,–,–,–,–,–,–,"IC50 (DLD-1; Homo sapiens, DLD-1, basal, read-out: Basal_Viability ATP DLD-1): 8.4 nM; EC50 (INS-1E cells; Rattus norvegicus, IC50 / EC50, INS-1E): > 10000 nM; IC50 (HT-29; Homo sapiens, HT-29; read-out: Basal_Viability ATP HT-29): 9.5 nM; IC50 (RKO; Homo sapiens, RKO; read-out: Basal_Viability ATP RKO): 30.3 nM; IC50 (HCT116; Homo sapiens, HCT-116, basal, read-out: Basal_Viability ATP HCT116): 16.9 nM; IC50 (Colo320; Homo sapiens, COLO 320; read-out: Basal_Viability ATP Colo 320): 54 nM; IC50 (SNU-C1; Homo sapiens, SNU-C1, basal, read-out: Basal_Viability ATP SNU-C1): 14.3 nM; IC50 ([1]; Homo sapiens, IC50 / EC50, endothelial tube area, ADSC/ECFC co-culture): > 10000 nM; EC50 (NCI-H716 cells; Homo sapiens, IC50 / EC50, NCI-H716, read-out: GLP 1 Secretion): 1300 nM; EC50 ([2]; Mus musculus, C2C12, IC50 / EC50, C2C12 beta-catenin translocation, read-out: Wnt Pathway): > 10000 nM; IC50 ([3]; Homo sapiens, HCT-116, GSK3b inhibitor pretreated, read-out: GSK3b inh pretreated_Viability ATP HCT116): 66.7 nM; IC50 (SW480; Homo sapiens, SW480, basal, read-out: Basal_Viability ATP SW480): 10.8 nM"
